Converted amounts (≈) assume the structure as drawn. Like-named read-outs stand apart in the source and are kept apart here. Non-standard residues stand in square brackets, D forms with d. Residues, ends and D or L forms follow the SMILES beside them. d1Nal = N[C@H](Cc1cccc2ccccc12)C(=O)O
Key:
Burkholderia cepacia = experiment: microbe, parasite or virus in culture; format: cell-based; conditions: Burkholderia cepacia 25416
Protocol: (§1) Acne vulgaris may involve a microbial consortium. Although P. acnes may be a prominent member of such a consortium, other uncharacterized bacteria may also participate. The microbial activity of XMP.629 as an acetate gel as described in Example 5 and other commonly used antibiotics was evaluated against a panel of human pathogens using standardized NCCLS protocols. […] Lesser potency was observed against the gram-negative organisms B. fragilis, B. cepacia, P. mirabilis and S. marcescens, which are often refractory to many antimicrobial compounds.

Bacteroides fragilis = experiment: microbe, parasite or virus in culture; format: cell-based; conditions: Bacteroides fragilis 25285
Protocol: as §1

Escherichia coli = experiment: microbe, parasite or virus in culture; format: cell-based
Protocol: as §1

Serratia marcescens = experiment: microbe, parasite or virus in culture; format: cell-based
Protocol: as §1

Salmonella ryphimurium = experiment: microbe, parasite or virus in culture; format: cell-based; conditions: Salmonella ryphimurium SL770
Protocol: as §1

[1] = tested on: Actinobacillus actinomycetemcomitans; experiment: microbe, parasite or virus in culture; format: cell-based; conditions: Actinobacillus actinomycetemcomitans 43718
Protocol: as §1

Prevotella intermedia = experiment: microbe, parasite or virus in culture; format: cell-based; conditions: Prevotella intermedia 25261
Protocol: as §1

Proteus mirabilis = experiment: microbe, parasite or virus in culture; format: cell-based; conditions: Proteus mirabilis 29852
Protocol: as §1

Porphyromonas gingivalis = experiment: microbe, parasite or virus in culture; format: cell-based; conditions: Porphyromonas gingivalis 33277
Protocol: as §1

Klebsiella pneumoniae = experiment: microbe, parasite or virus in culture; format: cell-based
Protocol: as §1

P. acnes = conditions: each strain: UPC686, ATCC 6919 intermediate-erythromycin, UP2022
P. aeruginosa = format: cell-based, Pseudomonas aeruginosa
Protocol: Control tubes containing only water or formulation buffer were prepared for each isolate. Initial growth controls were determined by removing 10 μL from the water control tube and diluting it by 100 fold. From this dilution, 10 μL was used for inoculation and for spreading over the surface onto Laked Blood Agar (LBA) (Anaerobe Systems, Morgan Hill, Calif.) plates. The tubes and plates were incubated in an anaerobic atmosphere at 37° C. for 48 h. […] MBC50 and 90 values represent where 50 and 90%, respectively, of the tested strain's MBC values are equal to or less than the indicated concentration.

P. avidum = format: cell-based, Propionibacterium avidum
Protocol: This example addresses studies relating to the antimicrobial activities of XMP.629. An in vitro assessment of antibiotic activity in XMP.629 and various known antibiotics against a representative panel of bacterial strains associated with acne was conducted. A broth dilution methodology was employed using guidelines established by National Committee for Clinical Laboratory Standards (NCCLS) for anaerobic organisms to establish an antibacterial profile for XMP.629. Assays to determine the minimal bactericidal concentrations (MBC) and minimal inhibitory concentration (MIC) were conducted for XMP.629 and other known antibiotics. Furthermore, test to determine post antibiotic effect (PAE) of XMP.629 were done.
Inoculum from a representative panel of bacterial strains associated with acne, such as P. acnes, P. avidum, P. granulosum, and Staphylococcus epidermis was prepared by suspending approximately 5-10 isolated bacterial colonies in pre-reduced MicroScan® Inoculum Water (Dade Behring, Deerfield, Ill.), and growing the bacterial suspension to log phase (approximately 48 hrs). An inoculum of between 1-5×10^6/mL was achieved by adding 100 μL of the suspension to 25 mL Brain Heart Infusion Broth (BHI) (Anaerobe Systems, Morgan Hill, Calif.).
A stock solution of XMP.629 dissolved in water at a concentration of 4.0 mg/mL was prepared. Dilute solutions of XMP.629 at concentrations ranging from about 1.25 to about 160 μg/mL were made in either water or formulation buffer (130 mM sodium chloride, 0.2% P103 (poloxamer 333), and 0.10% EDTA, pH 7.3). Aqueous stock solutions of clindamycin and erythromycin were prepared in water.
Each tube, containing a final volume of 1 mL, was mixed by vortexing. Control tubes containing only water or formulation buffer were prepared for each isolate. Initial growth controls were determined by removing 10 μL from the water control tube and diluting it by 100 fold. From this dilution, 10 μL was used for inoculation and for spreading over the surface onto Laked Blood Agar (LBA) (Anaerobe Systems, Morgan Hill, Calif.) plates. The tubes and plates were incubated in an anaerobic atmosphere at 37° C. for 48 h. After incubation, the tubes were mixed and 10 μL samples were removed from each tube for additional plating. These plates were then further incubated in an anaerobic atmosphere at 37° C. for 48-72 h and the resulting colonies were counted. After adjusting for the dilution factor, the lowest concentration of drug or combination of drugs reducing the inoculum by ≧99.9% was considered to be the minimum bactericidal concentration (MBC). MBC50 and 90 values represent where 50 and 90%, respectively, of the tested strain's MBC values are equal to or less than the indicated concentration. The lowest concentration of antibiotic(s) that inhibited visible growth in the culture tubes was considered to be the minimal inhibitory concentration (MIC).
For comparison, additional Propionibacterium strains, were tested.

physchem = conditions: aqueous solution
Protocol: In additional studies, a variety of formulations of XMP.629 were tested for stability under various temperatures, such as 25° C., 40° C., and 50° C., and at various time points, such as 0.5, 1, and 2 months.
The solubility of XMP.629 acetate in various solvents was also evaluated.
Solubility studies were conducted using a variety of solvent systems and/or skin penetration enhancers.

[2] = RMA 8375, Formulation Buffer Solvent, Study 1
[3] = RMA 8375, Formulation Buffer Solvent, Study 2
[4] = RMA 8375, Water Solvent, Study 1
[5] = RMA 8375, Water Solvent, Study 2
[6] = RMA 8376, Formulation Buffer Solvent, Study 1
[7] = RMA 8376, Formulation Buffer Solvent, Study 2
[8] = RMA 8376, Water Solvent, Study 1
[9] = RMA 8376, Water Solvent, Study 2
[10] = RMA 9497, Formulation Buffer Solvent, Study 1
[11] = RMA 9497, Formulation Buffer Solvent, Study 2
[12] = RMA 9497, Water Solvent, Study 1
[13] = RMA 9497, Water Solvent, Study 2
[14] = RMA 13009, Formulation Buffer Solvent, Study 1
[15] = RMA 13009, Formulation Buffer Solvent, Study 2
[16] = RMA 13009, Water Solvent, Study 1
[17] = RMA 13009, Water Solvent, Study 2

CC(C)C[C@@H](NC(=O)[C@H](N)CCCCN)C(=O)N[C@H](Cc1ccccc1)C(=O)N[C@H](CCCNC(=N)N)C(=O)N[C@H](Cc1cccc2ccccc12)C(=O)N[C@H](CCC(N)=O)C(=O)N[C@H](C)C(=O)N[C@H](CCCCN)C(=O)N[C@H](Cc1cccc2ccccc12)C(N)=O [XMP.629, NH2-lys-leu-phe-arg-(3-(1-naphthyl)-ala)-gln-ala-lys-(3-(1-naphthyl)-ala)-CONH2] (H-[dK][dL][dF][dR][d1Nal][dQ][dA][dK][d1Nal]-NH2)
Minimum Inhibitory Concentrations (Staphylococcus aureus; Staphylococcus aureus 6258): 2.00 µg/mL | Minimum Inhibitory Concentrations (Staphylococcus aureus; Staphylococcus aureus 11371): 2.00 µg/mL | Minimum Inhibitory Concentrations (Staphylococcus aureus; Staphylococcus aureus 12598): 2.00 µg/mL | Minimum Inhibitory Concentrations (Staphylococcus aureus; Staphylococcus aureus 19636): 2.00 µg/mL | Minimum Inhibitory Concentrations (Staphylococcus aureus; Staphylococcus aureus BAA-38 (MRSA)): 2.00 µg/mL | Minimum Inhibitory Concentrations (Burkholderia cepacia): 32.0 µg/mL | Minimum Inhibitory Concentrations (Bacteroides fragilis): 16.0 µg/mL | Minimum Inhibitory Concentrations (Escherichia coli; Escherichia coli 07:K1): 4.00 µg/mL | Minimum Inhibitory Concentrations (Escherichia coli; Escherichia coli 0111:B4): 2.00 µg/mL | Minimum Inhibitory Concentrations (Serratia marcescens; Serratia marcescens 13880): 64.0 µg/mL | Minimum Inhibitory Concentrations (Serratia marcescens; Serratia marcescens 14756): 32.0 µg/mL | Minimum Inhibitory Concentrations (Salmonella ryphimurium): 4.00 µg/mL | Minimum Inhibitory Concentrations [1]: 4.00 µg/mL | Minimum Inhibitory Concentrations (Prevotella intermedia): 2.00 µg/mL | Minimum Inhibitory Concentrations (Proteus mirabilis): >64 µg/mL | Minimum Inhibitory Concentrations (Porphyromonas gingivalis): 4.00 µg/mL | Minimum Inhibitory Concentrations (Klebsiella pneumoniae; Klebsiella pneumoniae 19645): 2.00 µg/mL | Minimum Inhibitory Concentrations (Klebsiella pneumoniae; Klebsiella pneumoniae 29011): 8.00 µg/mL | MBC (P. acnes): 1 µg/mL (≈ 0.779 µM) | Minimum Inhibitory Concentrations (Pseudomonas aeruginosa; Pseudomonas aeruginosa 9027): 8.00 µg/mL | Minimum Inhibitory Concentrations (Pseudomonas aeruginosa; Pseudomonas aeruginosa 19660): 8.00 µg/mL | Minimum Inhibitory Concentrations (Pseudomonas aeruginosa; Pseudomonas aeruginosa 27853): 4.00 µg/mL | Minimum Inhibitory Concentrations (Pseudomonas aeruginosa; Pseudomonas aeruginosa XS-65 (MDR)): 8.00 µg/mL | MIC90, XMP.629 data reported as MBC values (P. aeruginosa): 32 µg/mL (≈ 24.9 µM) | MIC90, XMP.629 data reported as MBC values (P. aeruginosa; in FB (formulation buffer)): 0.5 µg/mL (≈ 0.39 µM) | MBC50 (P. avidum; P. avidum, 4 strains): 1 µg/mL | MBC90 (P. avidum; P. avidum, 4 strains): 2 µg/mL | MBC Range (P. avidum; P. avidum, 4 strains, in µg/mL): 1-2 | MBC (P. avidum; [2]): 0.50 µg/mL | MIC (P. avidum; [2]): 0.25 µg/mL | MBC (P. avidum; [3]): 1 µg/mL | MIC (P. avidum; [3]): 0.25 µg/mL | MBC (P. avidum; [4]): 1 µg/mL | MIC (P. avidum; [4]): 0.5 µg/mL | MBC (P. avidum; [5]): 2 µg/mL | MIC (P. avidum; [5]): 1 µg/mL | MBC (P. avidum; [6]): 0.50 µg/mL | MIC (P. avidum; [6]): 0.5 µg/mL | MBC (P. avidum; [7]): 2 µg/mL | MIC (P. avidum; [7]): 0.25 µg/mL | MBC (P. avidum; [8]): 2 µg/mL | MIC (P. avidum; [8]): 1 µg/mL | MBC (P. avidum; [9]): 2 µg/mL | MIC (P. avidum; [9]): 1 µg/mL | MBC (P. avidum; [10]): 1 µg/mL | MIC (P. avidum; [10]): 0.25 µg/mL | MBC (P. avidum; [11]): 2 µg/mL | MIC (P. avidum; [11]): 0.25 µg/mL | MBC (P. avidum; [12]): 2 µg/mL | MIC (P. avidum; [12]): 2 µg/mL | MBC (P. avidum; [13]): 4 µg/mL | MIC (P. avidum; [13]): 1 µg/mL | MBC (P. avidum; [14]): 0.50 µg/mL | MIC (P. avidum; [14]): 0.25 µg/mL | MBC (P. avidum; [15]): 1 µg/mL | MIC (P. avidum; [15]): 0.25 µg/mL | MBC (P. avidum; [16]): 1 µg/mL | MIC (P. avidum; [16]): 1 µg/mL | MBC (P. avidum; [17]): 1 µg/mL | MIC (P. avidum; [17]): 1 µg/mL | solubility (physchem): ≥ 20 mg/mL
